Data reported in ChEMBL document CHEMBL1130406, “Ortho-substituted benzofused macrocyclic lactams as zinc metalloprotease inhibitors” (J Med Chem, 1997).

Columns and labels:
[1] = target: Neprilysin (Homo sapiens, UniProt P08473); assay: Inhibition of neutral endopeptidase
[2] = target: T1, Thermolysin (Bacillus thermoproteolyticus, UniProt P00800); assay: Inhibitory concentration required to inhibit thermolysin
T1 sequence (P00800 whole entry): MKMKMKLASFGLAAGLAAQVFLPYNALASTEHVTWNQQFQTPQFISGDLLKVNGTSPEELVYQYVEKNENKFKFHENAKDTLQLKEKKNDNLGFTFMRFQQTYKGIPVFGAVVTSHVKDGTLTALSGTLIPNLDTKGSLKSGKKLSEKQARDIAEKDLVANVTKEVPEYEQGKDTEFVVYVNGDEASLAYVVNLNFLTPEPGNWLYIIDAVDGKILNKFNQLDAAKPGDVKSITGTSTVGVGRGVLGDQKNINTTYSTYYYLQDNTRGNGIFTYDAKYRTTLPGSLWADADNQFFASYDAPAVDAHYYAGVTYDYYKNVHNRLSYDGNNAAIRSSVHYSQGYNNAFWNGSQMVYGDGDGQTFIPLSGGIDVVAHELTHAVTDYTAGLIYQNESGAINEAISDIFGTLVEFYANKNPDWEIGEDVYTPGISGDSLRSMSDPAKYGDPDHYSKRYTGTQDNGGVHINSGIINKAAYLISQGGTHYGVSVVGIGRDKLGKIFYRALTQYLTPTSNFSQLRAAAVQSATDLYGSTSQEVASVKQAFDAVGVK

Chain of Neprilysin (P08473 whole entry): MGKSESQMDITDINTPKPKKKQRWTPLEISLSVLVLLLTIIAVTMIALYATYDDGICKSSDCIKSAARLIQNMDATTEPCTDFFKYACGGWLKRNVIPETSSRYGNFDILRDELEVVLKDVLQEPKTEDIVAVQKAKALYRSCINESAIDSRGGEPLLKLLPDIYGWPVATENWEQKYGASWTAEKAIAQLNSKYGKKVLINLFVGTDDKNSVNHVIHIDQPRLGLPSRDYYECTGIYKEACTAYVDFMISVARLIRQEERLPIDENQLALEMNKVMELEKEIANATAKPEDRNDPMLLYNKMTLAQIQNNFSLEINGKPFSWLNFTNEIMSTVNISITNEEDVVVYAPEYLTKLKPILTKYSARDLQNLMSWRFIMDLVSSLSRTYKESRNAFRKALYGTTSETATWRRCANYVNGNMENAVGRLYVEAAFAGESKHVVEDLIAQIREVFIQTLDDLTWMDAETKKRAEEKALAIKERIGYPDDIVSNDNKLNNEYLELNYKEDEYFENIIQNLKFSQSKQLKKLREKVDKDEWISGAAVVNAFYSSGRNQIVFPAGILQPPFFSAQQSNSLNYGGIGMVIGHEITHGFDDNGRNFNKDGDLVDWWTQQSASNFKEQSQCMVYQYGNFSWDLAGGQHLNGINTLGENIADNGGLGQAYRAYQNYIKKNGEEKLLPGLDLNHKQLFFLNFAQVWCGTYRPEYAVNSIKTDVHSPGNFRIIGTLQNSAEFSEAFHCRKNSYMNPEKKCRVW

Structure (SMILES) | IC50 [1] [nM] | IC50 [2] [nM]
O=C1N[C@@H](C(=O)O)Cc2ccccc2CCCCCC[C@@H]1CS | 136 | 16000
O=C1N[C@H](C(=O)O)CCCCc2ccccc2C[C@@H]1CS | 0.9 | 68
O=C1N[C@H](C(=O)O)CCCCCc2ccccc2C[C@H]1CS | 4 | 4000
O=C1N[C@H](C(=O)O)Cc2ccccc2CCCCCCC[C@@H]1CS | 900 | –
O=C(O)CNC(=O)C(CS)Cc1ccccc1 (configuration not stated) [THIORPHAN] | – | 9500

Other lines, results leading:

IC50 [1] [nM] | IC50 [2] [nM] | Structure (SMILES)
27 | 1800 | O=C1N[C@H](C(=O)O)CCCCCCc2ccccc2C[C@H]1CS
67 | 40000 | O=C1N[C@H](C(=O)O)Cc2ccccc2CCCCCC[C@@H]1CS
99 | 49000 | O=C1N[C@@H](C(=O)O)Cc2ccccc2CCCCC[C@@H]1CS
224 | 41000 | O=C1N[C@H](C(=O)O)CCCCCCc2ccccc2C[C@@H]1CS
3 | 600 | O=C1N[C@H](C(=O)O)CCCCCc2ccccc2C[C@@H]1CS
7 | 2300 | O=C1N[C@H](C(=O)O)CCCCc2ccccc2C[C@H]1CS
> 10000 | 60000 | O=C1N[C@@H](C(=O)O)Cc2ccccc2CCCCCCC[C@@H]1CS
